# Test results reported in patent US9388139B2, “Derivatives of celeboxib, use thereof and preparation thereof” (German University, priority 2011, dated 2016).
# pIC50: −log10 of the molar value.
# Columns and labels:
# Type in all cases: cell-based
# [1] = system: human colorectal HT-29 tumor cell line; assay: Tumor cell growth assay (Cell Titer Glo); conditions: HT-29, 72 hours, read-out: IC50 μM against HT-29
# A549 = assay: Tumor cell growth inhibition panel; conditions: Homo sapiens, Lung
# Description: (§1) Thus, compound 12 is able to show broad spectrum tumor cell growth inhibitory activity independent of cyclooxygenase inhibition, whereas PDE5 may be the major contributor to such activity.
# (§2) The human tumor cell lines were purchased from the American Type Culture Collection (Mansassas, Va.) and maintained in RPMI-1640+2.0 g/L glucose pH 7.4+5% FBS+4 mM glutamine (complete growth medium), incubated at 37° C. in 5% CO2, and passaged at subconfluent density. The human fetal colon FHC cells were cultured in DMEM:F12 medium supplemented with 10% FBS, cholera toxin (10 ng/mL), 5 μg/ml transferrin, 5 μg/ml insulin, and 100 ng/ml hydrocortisone. The passage number was routinely limited to approximately 20 and morphology monitored with each passage, but no additional authentication of the cell lines was performed.
# (§3) Cells were plated in 96-well microtiter plates at a density of 5,000 cells per well and allowed to adhere overnight prior to treatment. Cells were treated with a 2-log concentration range of either SS or SBA and incubated for an additional 72 hours. For siRNA assays, cells were transfected in OptiMEM media with 0.5% SureFECT transfection reagent and 200 nmol/L of either negative control or PDE5 siRNA and incubated at 37° C. for 24 h prior to treatment. At the end of the incubation period, relative cell viability was compared to vehicle controls using the Cell Titer Glo Assay (Promega, Madison Wis.), which measures viable cells based on ATP content, according to the manufacturer's specifications.
# ACHN = assay: Tumor cell growth inhibition panel; conditions: Homo sapiens, Renal
# Description: as §1, §2, §3
# BT-549 = assay: Tumor cell growth inhibition panel; conditions: Homo sapiens, Breast
# Description: as §1, §2, §3
# CAKI-1 = assay: Tumor cell growth inhibition panel; conditions: Homo sapiens, Renal
# Description: as §1, §2, §3
# CCFR-CEM = assay: Tumor cell growth inhibition panel; conditions: Homo sapiens, Hematopoietic
# Description: as §1, §2, §3
# COL0205 = assay: Tumor cell growth inhibition panel; conditions: Homo sapiens, Colon
# Description: as §1, §2, §3
# DU-145 = assay: Tumor cell growth inhibition panel; conditions: Homo sapiens, Prostate
# Description: as §1, §2, §3
# EKVX = assay: Tumor cell growth inhibition panel; conditions: Homo sapiens, Lung
# Description: as §1, §2, §3
# HCC-2998 = assay: Tumor cell growth inhibition panel; conditions: Homo sapiens, Colon
# Description: as §1, §2, §3
# HCT-15 = assay: Tumor cell growth inhibition panel; conditions: Homo sapiens, Colon
# Description: as §1, §2, §3
# HL-60 (TB) = assay: Tumor cell growth inhibition panel; conditions: Homo sapiens, Hematopoietic
# Description: as §1, §2, §3
# HOP-92 = assay: Tumor cell growth inhibition panel; conditions: Homo sapiens, Lung
# Description: as §1, §2, §3
# HT29 = assay: Tumor cell growth inhibition panel; conditions: Homo sapiens, HT-29, Colon
# Description: as §1, §2, §3
# Hs578T = assay: Tumor cell growth inhibition panel; conditions: Homo sapiens, Hs-578T, Breast
# Description: as §1, §2, §3
# IGROV-1 = assay: Tumor cell growth inhibition panel; conditions: Homo sapiens, Ovarian
# Description: as §1, §2, §3
# K562 = assay: Tumor cell growth inhibition panel; conditions: Homo sapiens, Hematopoietic
# Description: as §1, §2, §3
# KM12 = assay: Tumor cell growth inhibition panel; conditions: Homo sapiens, Colon
# Description: as §1, §2, §3
# LOX IMV1 = assay: Tumor cell growth inhibition panel; conditions: Homo sapiens, Melanoma
# Description: as §1, §2, §3
# M14 = assay: Tumor cell growth inhibition panel; conditions: Homo sapiens, Melanoma
# Description: as §1, §2, §3
# MCF-7 = assay: Tumor cell growth inhibition panel; conditions: Homo sapiens, MCF7, Breast
# Description: as §1, §2, §3
# MDA-MB-435 = assay: Tumor cell growth inhibition panel; conditions: Homo sapiens, Melanoma
# Description: as §1, §2, §3
# MDA-MB-468 = assay: Tumor cell growth inhibition panel; conditions: Homo sapiens, Breast
# Description: as §1, §2, §3
# MOLT-4 = assay: Tumor cell growth inhibition panel; conditions: Homo sapiens, Hematopoietic
# Description: as §1, §2, §3
# NCI-ADR/RES = assay: Tumor cell growth inhibition panel; conditions: Homo sapiens; Other, NCI-ADR/RES (adriamycin resistant)
# Description: as §1, §2, §3
# NCI-H226 = assay: Tumor cell growth inhibition panel; conditions: Homo sapiens, Lung
# Description: as §1, §2, §3
# NCI-H23 = assay: Tumor cell growth inhibition panel; conditions: Homo sapiens, Lung
# Description: as §1, §2, §3
# NCI-H460 = assay: Tumor cell growth inhibition panel; conditions: Homo sapiens, Lung
# Description: as §1, §2, §3
# NCI-H522 = assay: Tumor cell growth inhibition panel; conditions: Homo sapiens, Lung
# Description: as §1, §2, §3
# OVCAR-3 = assay: Tumor cell growth inhibition panel; conditions: Homo sapiens, Ovarian
# Description: as §1, §2, §3
# OVCAR-8 = assay: Tumor cell growth inhibition panel; conditions: Homo sapiens, Ovarian
# Description: as §1, §2, §3
# RPMI-8226 = assay: Tumor cell growth inhibition panel; conditions: Homo sapiens, Hematopoietic
# Description: as §1, §2, §3
# RXF-393 = assay: Tumor cell growth inhibition panel; conditions: Homo sapiens, Renal
# Description: as §1, §2, §3
# SF-295 = assay: Tumor cell growth inhibition panel; conditions: Homo sapiens, CNS
# Description: as §1, §2, §3
# SK-MEL-28 = assay: Tumor cell growth inhibition panel; conditions: Homo sapiens, Melanoma
# Description: as §1, §2, §3
# SK-MEL-2 = assay: Tumor cell growth inhibition panel; conditions: Homo sapiens, Melanoma
# Description: as §1, §2, §3
# SKOV-3 = assay: Tumor cell growth inhibition panel; conditions: Homo sapiens, SK-OV-3, Ovarian
# Description: as §1, §2, §3
# SN12C = assay: Tumor cell growth inhibition panel; conditions: Homo sapiens, Renal
# Description: as §1, §2, §3
# SNB-75 = assay: Tumor cell growth inhibition panel; conditions: Homo sapiens, CNS
# Description: as §1, §2, §3
# SR = assay: Tumor cell growth inhibition panel; conditions: Homo sapiens, Hematopoietic
# Description: as §1, §2, §3
# T-47D = assay: Tumor cell growth inhibition panel; conditions: Homo sapiens, T47D, Breast
# Description: as §1, §2, §3
# U251 = assay: Tumor cell growth inhibition panel; conditions: Homo sapiens, U-251, CNS
# Description: as §1, §2, §3
# UACC-62 = assay: Tumor cell growth inhibition panel; conditions: Homo sapiens, Melanoma
# Description: as §1, §2, §3
smiles,measurement,setting,value
"CC(C)(C)C1=NN(c2ccc(C(=O)O)cc2)C(c2ccc(Cl)cc2Cl)C1 (stereo not shown) [Compound 12, 4-(3-(tert-Butyl)-5-(2,4-dichlorophenyl)-4,5-dihydro-1H-pyrazol-1-yl)benzoic acid]",IC50,[1],29.8 µM
same,pIC50,A549,4.24
same,pIC50,ACHN,4.26
same,pIC50,BT-549,4.26
same,pIC50,CAKI-1,4.06
same,pIC50,CCFR-CEM,4.48
same,pIC50,COL0205,4.50
same,pIC50,DU-145,4.22
same,pIC50,EKVX,4.24
same,pIC50,HCC-2998,4.38
same,pIC50,HCT-15,4.39
same,pIC50,HL-60 (TB),4.46
same,pIC50,HOP-92,4.28
same,pIC50,HT29,4.53
same,pIC50,Hs578T,4.31
same,pIC50,IGROV-1,4.23
same,pIC50,K562,4.48
same,pIC50,KM12,4.46
same,pIC50,LOX IMV1,4.30
same,pIC50,M14,4.20
same,pIC50,MCF-7,4.28
same,pIC50,MDA-MB-435,4.29
same,pIC50,MDA-MB-468,4.23
same,pIC50,MOLT-4,4.68
same,pIC50,NCI-ADR/RES,4.24
same,pIC50,NCI-H226,4.25
same,pIC50,NCI-H23,4.39
same,pIC50,NCI-H460,4.37
same,pIC50,NCI-H522,4.30
same,pIC50,OVCAR-3,4.42
same,pIC50,OVCAR-8,4.34
same,pIC50,RPMI-8226,4.63
same,pIC50,RXF-393,4.33
same,pIC50,SF-295,4.34
same,pIC50,SK-MEL-28,4.14
same,pIC50,SK-MEL-2,4.35
same,pIC50,SKOV-3,4.06
same,pIC50,SN12C,4.30
same,pIC50,SNB-75,4.17
same,pIC50,SR,4.37
same,pIC50,T-47D,4.20
same,pIC50,U251,4.48
same,pIC50,UACC-62,4.37
